{
  "source": "paper PMC6271731",
  "about": "“Multitarget Molecular Hybrids of Cinnamic Acids” (Molecules, 2014)",
  "key": {"[1]": {"assay": "Inhibition of linoleic acid lipid peroxidation (AAPH)", "conditions": "% inhibition at 100 μM; pH 7.4, 37 °C", "description": "Production of conjugated diene hydroperoxide by oxidation of sodium linoleate in an aqueous dispersion is monitored at 234 nm. AAPH is used as a free radical initiator [12, 24]. Ten microlitres of the 16 mM sodium linoleate solution was added to the UV cuvette containing 930 μL of 0.05 M phosphate buffer, pH 7.4 prethermostated at 37 °C. The oxidation reaction was initiated at 37 °C under air by the addition of 40 mM AAPH solution (50 μL). Ten μL of the tested compounds were added in the mixture. Lipid oxidation was measured in the presence of the same level of DMSO. The rate of oxidation at 37 °C was monitored by recording the increase in absorption at 234 nm caused by conjugated diene hydroperoxides. The results were compared to the appropriate standard inhibitor trolox (63%) (Table 1)."}, "soybean lipoxygenase": {"biological_target": "T1, soybean lipoxygenase (Glycine max, UniProt P08170)", "T1 construct": "purchased Sigma Chemical, Co. (St. Louis, MO, USA)", "T1 sequence (P08170 1-839)": "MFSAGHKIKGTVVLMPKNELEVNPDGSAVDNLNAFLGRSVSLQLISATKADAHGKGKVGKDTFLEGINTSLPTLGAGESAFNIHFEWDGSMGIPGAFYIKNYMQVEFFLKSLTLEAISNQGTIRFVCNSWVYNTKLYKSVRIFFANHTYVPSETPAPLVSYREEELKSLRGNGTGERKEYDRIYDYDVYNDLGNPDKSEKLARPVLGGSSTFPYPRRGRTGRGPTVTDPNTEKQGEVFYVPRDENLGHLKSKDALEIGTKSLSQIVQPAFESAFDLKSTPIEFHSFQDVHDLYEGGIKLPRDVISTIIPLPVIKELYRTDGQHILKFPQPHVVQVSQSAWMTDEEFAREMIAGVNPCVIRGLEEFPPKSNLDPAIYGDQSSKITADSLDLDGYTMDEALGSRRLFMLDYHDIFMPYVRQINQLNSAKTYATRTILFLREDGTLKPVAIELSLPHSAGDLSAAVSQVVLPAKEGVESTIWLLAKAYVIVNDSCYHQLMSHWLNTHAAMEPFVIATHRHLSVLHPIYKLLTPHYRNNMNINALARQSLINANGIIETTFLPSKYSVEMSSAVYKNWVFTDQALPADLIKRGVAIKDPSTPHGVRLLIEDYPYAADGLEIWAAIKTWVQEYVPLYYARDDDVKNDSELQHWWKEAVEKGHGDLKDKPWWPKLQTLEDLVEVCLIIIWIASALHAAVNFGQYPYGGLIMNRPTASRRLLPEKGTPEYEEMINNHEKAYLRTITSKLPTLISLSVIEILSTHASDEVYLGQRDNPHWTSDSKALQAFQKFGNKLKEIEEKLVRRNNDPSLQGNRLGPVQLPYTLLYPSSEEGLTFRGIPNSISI", "assay": "Soybean lipoxygenase inhibition in vitro", "format": "biochemical", "description": "DMSO solution of the tested compound was incubated with sodium linoleate (0.1 mM) and 0.2 mL of soybean lipoxygenase solution (1/9 × 10^−4 w/v in saline) in buffer pH 9 (tris) and at room temperature. […] The results are given in Table 1 expressed as IC50 values or % inhibition at 100 μM."}},
  "data": [
    {"smiles": "CC(=O)Nc1ccc(OC(=O)/C=C/c2cccc(Oc3ccccc3)c2)cc1", "note": "[Compound 2a, (E)-4-Acetamidophenyl 3-(3-phenoxyphenyl)acrylate]", "values": [
      {"measurement": "AAPH % (% inhibition of lipid peroxidation)", "setting": "[1]", "result": 90, "unit": "%"},
      {"measurement": "IC50", "setting": "soybean lipoxygenase", "result": 100, "unit": "µM"}
    ]}
  ]
}
